Consider ten compounds from ChEMBL document CHEMBL1201862, “PubChem BioAssay data set” (2004).

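Briefly, cells in 96-well plates were exposed to five compound concentrations for 48 h, and endpoints were estimated by linear interpolation. GI50: concentration for 50% inhibition of growth.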 Calls of active or inactive are those of the source. Rule as the data show it: active = GI50 up to about 1.1 µM and inactive = higher. Bounds are passed on as bounds.

Test systems include CCRF-CEM; HCT-116; UACC-62; UO-31; MDA-MB-231; M14; U-251; SK-MEL-5; OVCAR-8; K562; SR; LOX IMVI; OVCAR-4; SN12C; RPMI-8226; SNB-75; SK-MEL-2; MDA-MB-435; SNB-19; A498.
Common to all, as to experiment: inhibition of tumour cell growth, NCI panel, 48 h

For the compound `O=C1/C(=C/c2ccc([N+](=O)[O-])cc2)CNC/C1=C\c1ccc([N+](=O)[O-])cc1`, the GI50 with CCRF-CEM was 0.229 µM (active); in the test on HCT-116, 0.63 µM (active); with UACC-62 it was 12.3 µM (inactive); in the test with UO-31, 6.17 µM (inactive); with MDA-MB-231, 2.69 µM (inactive); in the test on M14, 12.5 µM (inactive). Also, the GI50 with U-251 was 0.469 µM (active); in the test with SK-MEL-5 it was 10.8 µM (inactive); with OVCAR-8, 3.13 µM (inactive); in the test with K562, 0.188 µM (active); with SR, 0.241 µM (active); in the test with LOX IMVI it was 2.09 µM (inactive). In addition, the GI50 was 3.63 µM (inactive) with OVCAR-4; 5.41 µM (inactive) in the test on SN12C; 0.382 µM (active) in the test on RPMI-8226; 2.6 µM (inactive) in the test with SNB-75; 31.8 µM (inactive) in the test on SK-MEL-2; 10.4 µM (inactive) with MDA-MB-435. For the same compound, the GI50 with SNB-19 was 2.27 µM (inactive); in the test on A498, 16.6 µM (inactive).
On to `CCc1nc(N)nc(N)c1-c1ccc2nnn(O)c2c1`, for which the GI50 in the test with CCRF-CEM was > 100 µM (inactive); with HCT-116, > 83.8 µM (inactive); in the test with UACC-62, > 100 µM (inactive); with UO-31, > 100 µM (inactive); with MDA-MB-231, > 100 µM (inactive); in the test on M14 it was > 100 µM (inactive). For the same compound, the GI50 in the test with U-251 was > 100 µM (inactive); in the test with SK-MEL-5, > 100 µM (inactive); in the test on OVCAR-8, > 100 µM (inactive); with K562, 76.2 µM (inactive); in the test on SR it was > 100 µM (inactive); in the test on LOX IMVI, > 100 µM (inactive). The GI50 in the test with OVCAR-4, in the test with SN12C, in the test with RPMI-8226, in the test with SNB-75, in the test with SK-MEL-2 and in the test with MDA-MB-435 was > 100 µM (inactive) in each case. Moreover, the GI50 in the test on SNB-19 and in the test with A498 was > 100 µM (inactive) each time.
Take `COc1nc2c(c(=O)n1C)N(C(C)=O)C1C(N2)OCC(OC(C)=O)C1OC(C)=O` (stereo not drawn): the GI50 in the test with CCRF-CEM, in the test on HCT-116, with UACC-62, in the test on UO-31, in the test on MDA-MB-231 and in the test on M14 was > 10 µM (inactive) in each case. The GI50 with U-251, with SK-MEL-5, in the test with OVCAR-8, in the test on K562, in the test on SR and with LOX IMVI was > 10 µM (inactive) in each case. For the same compound, the GI50 with OVCAR-4, in the test on SN12C, in the test on RPMI-8226, in the test with SNB-75, in the test on SK-MEL-2 and in the test on MDA-MB-435 was > 10 µM (inactive) in each case. Moreover, the GI50 in the test with SNB-19 and with A498 was > 10 µM (inactive) in each case.
For `CC(C)[C@@H]1NC(=O)[C@@H]2N=C(O[C@H]2C)[C@H](C(C)C)NC(=O)C2N=C1O[C@H]2C`, the GI50 in the test on CCRF-CEM, with HCT-116, in the test with UACC-62, in the test on UO-31, in the test on MDA-MB-231 and in the test with M14 was > 100 µM (inactive) throughout. Besides, the GI50 in the test on SK-MEL-5, with OVCAR-8, in the test with K562, with SR, in the test with LOX IMVI and with OVCAR-4 was > 100 µM (inactive) in each case. Further, the GI50 with SN12C, in the test on RPMI-8226, in the test with SNB-75, in the test on SK-MEL-2, in the test with MDA-MB-435 and with SNB-19 was > 100 µM (inactive) each time. For the same compound, the GI50 in the test with A498 was > 100 µM (inactive).
For the compound `COC(=O)c1ccccc1C1CN=NC12Cc1cccc(C)c1C2=O` (stereo not drawn), the GI50 was 52.7 µM (inactive) in the test with CCRF-CEM; 37.4 µM (inactive) in the test with HCT-116; 34.7 µM (inactive) in the test with UACC-62; 20.8 µM (inactive) in the test on UO-31; > 100 µM (inactive) with MDA-MB-231; 56 µM (inactive) with U-251. The GI50 was 34.4 µM (inactive) in the test with SK-MEL-5; 42.4 µM (inactive) in the test with OVCAR-8; 53.1 µM (inactive) in the test with K562; 94.4 µM (inactive) in the test on SR; 55 µM (inactive) in the test with LOX IMVI; 33 µM (inactive) with OVCAR-4. The GI50 in the test with SN12C was 36.1 µM (inactive); in the test on RPMI-8226, 29 µM (inactive); in the test with SNB-75 it was 33.3 µM (inactive); with SK-MEL-2 it was 46.1 µM (inactive); with MDA-MB-435, 37.4 µM (inactive); with SNB-19, 70 µM (inactive). For the same compound, the GI50 with A498 was 54.6 µM (inactive).
Take `O=c1[nH]c2cc(C(F)(F)F)ccc2nc1Cc1ccccc1`: the GI50 with CCRF-CEM is > 100 µM (inactive); in the test on HCT-116 it was 71.6 µM (inactive); in the test on UACC-62, > 100 µM (inactive); in the test with UO-31 it was 78.3 µM (inactive); with MDA-MB-231, 30.8 µM (inactive); in the test on M14, > 100 µM (inactive). In addition, the GI50 with U-251 is 76 µM (inactive); in the test with SK-MEL-5 it was > 100 µM (inactive); in the test on OVCAR-8 it was 80.2 µM (inactive); in the test on K562 it was 62.2 µM (inactive); with SR it was 36.6 µM (inactive); in the test on LOX IMVI, > 100 µM (inactive). Moreover, the GI50 was 63.7 µM (inactive) in the test on OVCAR-4; > 100 µM (inactive) with RPMI-8226; 41.6 µM (inactive) in the test with SNB-75; > 100 µM (inactive) with SK-MEL-2; > 100 µM (inactive) in the test with MDA-MB-435; 66.2 µM (inactive) with SNB-19. Further, the GI50 in the test with A498 was 85.9 µM (inactive).
As to `CS/C(=N\S(=O)(=O)c1ccc(Cl)cc1)NCCCCN/C(=N/S(=O)(=O)c1ccc(Cl)cc1)SC`, the GI50 in the test on CCRF-CEM, in the test on HCT-116, in the test with UACC-62, with UO-31, with MDA-MB-231 and with M14 was > 100 µM (inactive) each time. Also, the GI50 with U-251 was 69.5 µM (inactive); with OVCAR-8, 75.3 µM (inactive); in the test on K562, > 100 µM (inactive); with SR, > 100 µM (inactive); in the test with LOX IMVI, > 100 µM (inactive); with OVCAR-4, > 100 µM (inactive). In addition, the GI50 in the test with SN12C was > 100 µM (inactive); in the test on RPMI-8226, > 100 µM (inactive); in the test on SNB-75, > 10 µM (inactive); in the test on SK-MEL-2 it was > 100 µM (inactive); with MDA-MB-435, > 100 µM (inactive); in the test with SNB-19, > 100 µM (inactive). In the test with A498, the GI50 is 32.6 µM (inactive).
As to `CCCCC/C(C=O)=C\c1ccccc1`, the GI50 in the test on CCRF-CEM is 80.4 µM (inactive); in the test on HCT-116 it was > 100 µM (inactive); with UACC-62, > 100 µM (inactive); in the test on UO-31 it was > 100 µM (inactive); in the test on MDA-MB-231, > 100 µM (inactive); with M14, > 100 µM (inactive). For the same compound, the GI50 is > 100 µM (inactive) with U-251; > 100 µM (inactive) in the test with SK-MEL-5; > 100 µM (inactive) in the test with OVCAR-8; 20.3 µM (inactive) in the test on K562; > 100 µM (inactive) in the test with SR; > 100 µM (inactive) in the test on LOX IMVI. Moreover, the GI50 in the test on OVCAR-4, in the test on RPMI-8226, in the test on SNB-75, with SK-MEL-2, in the test on MDA-MB-435 and in the test on SNB-19 was > 100 µM (inactive) throughout. The GI50 with A498 was > 100 µM (inactive).
Turning to `C=CCc1cccc2cc(C(=O)NCc3ccccc3)c(=N)oc12`, the GI50 in the test with CCRF-CEM was 32.6 µM (inactive); with HCT-116, 24.2 µM (inactive); in the test on UACC-62, 22.8 µM (inactive); in the test with MDA-MB-231 it was 30.6 µM (inactive); in the test with M14 it was 40.6 µM (inactive); with U-251 it was 38.2 µM (inactive). The GI50 in the test on SK-MEL-5 is 25.5 µM (inactive); with OVCAR-8 it was 43.9 µM (inactive); in the test with K562 it was > 100 µM (inactive); with SR, > 100 µM (inactive); with LOX IMVI it was 42.7 µM (inactive); with OVCAR-4, 41.4 µM (inactive). Also, the GI50 is 27.6 µM (inactive) with SN12C; 79.8 µM (inactive) in the test with RPMI-8226; 31.3 µM (inactive) in the test with SNB-75; 12.1 µM (inactive) with SK-MEL-2; 25.8 µM (inactive) in the test on MDA-MB-435; 29.9 µM (inactive) with SNB-19. Moreover, in the test on A498, the GI50 was 23.4 µM (inactive).
As for `COc1ccc2c(c1)C1Oc3ccccc3CC1(O)CO2` (stereo not drawn), the GI50 with CCRF-CEM, with HCT-116, in the test on UACC-62, with UO-31, in the test on MDA-MB-231 and with M14 was > 100 µM (inactive) in each case. The GI50 in the test on U-251, in the test with SK-MEL-5, in the test on OVCAR-8, with K562, with SR and in the test on LOX IMVI was > 100 µM (inactive) each time. Moreover, the GI50 with OVCAR-4, in the test with SN12C, with RPMI-8226, with SNB-75, in the test on SK-MEL-2 and in the test on MDA-MB-435 was > 100 µM (inactive) each time. In addition, the GI50 in the test on A498 is > 100 µM (inactive).
